According to patent US20100120737A1, “Amorphous ciclesonide” (priority 2008, published 2010):
Values after ≈ are worked out from the molar mass of the structure shown.

Tests used:
Format in all cases: physicochemical
[1] = Dissolution experiments (dissolution kinetics in water)
Protocol: For each timepoint (5 min, 10 min, 20 min, 35 min, 60 min and 1440 min) of the dissolution experiment, three samples each of X-ray amorphous and crystalline ciclesonide were prepared by weighing a defined amount of in each case about 15 mg into a 250 ml conical wide-necked Erlenmeyer flask and stirring (850 rpm, glass coated magnetic stir bar, having a length of 2.4 cm and a diameter of 0.59 cm) the samples at 37° C. in 100 ml water (Millipore quality, ELIX 3, Gradient A 10, pH 5.92-6.00). The moment of the addition of water was defined as t0. The tempering of the samples was performed using an air bath. After the desired stirring time, the complete samples were filtered through a 0.2 μm membrane filter (Schleicher & Schuell, RC 0.2 μm Spartan 30/A) and concentrated on a Sep-Pak cartridge (Waters Sep-Pak cartridge C18, WAT051910). The cartridge was then eluted with ethanol (gradient grade, Merck). The ciclesonide in the ethanol solution was then quantified by HPLC (LaChrom®-HPLC System Series 7000, column: Zorbax SB phenyl, eluent: water/ethanol 38%: 62% (v/v) isocratic, column temperature: 60° C., injection volume: 50 μL, UV-detection at 243 nm) against an external standard.

[2] = Saturation solubility experiments; conditions: water, 24 hours stirring after ultrasonic treatment
Protocol: Defined amounts of in each case about 14 to 25 mg of X-ray amorphous or crystalline ciclesonide were weighed into a conical Erlenmeyer flask equipped with a rubber stopper (n=3). 100 ml of water (Millipore quality. ELIX 3. Gradient A 10, pH 5.92-6.00) were added and 30 minutes of ultrasonic treatment was applied to the samples. Afterwards the samples were stirred in the dark for 24 hours at 37° C. in a water bath. After the desired stirring time, each sample was filtered through a 0.2 μm membrane filter (Schleicher & Schuell, RC 0.2 μm Spartan 30/A) and concentrated on a Sep-Pak cartridge (Waters Sep-Pak cartridge C18, WAT051910). Then the cartridge was eluted with ethanol (gradient grade, Merck). The ciclesonide in the ethanol solution was then quantified by HPLC (LaChrom®-HPLC System Series 7000, column: Zorbax SB phenyl, eluent: water/ethanol 38%: 62% (v/v) isocratic, column temperature: 60° C., injection volume: 50 μL, UV-detection at 243 nm) against an external standard.

[3] = Stability under elevated pressure (recrystallization); conditions: pressure of up to 2.500 for 5 min
Description: Such a stability against pressure is particularly desirable when a pharmaceutical agent is used for preparation of solid pharmaceutical compositions such as tablets or granules.

Hygroscopicity = assay: Hygroscopicity

| concentration of dissolved ingredient after 20 minutes ([1]; 37° C., after 20 minutes) [ng/mL] | concentration of dissolved ciclesonide after 24 hours ([1]; 37° C., after 24 hours) [ng/mL] | concentration of dissolved ingredient within 5 minutes ([1]; 37° C., within 5 minutes) [ng/mL] | concentration of dissolved ingredient relative to crystalline ciclesonide after 1 hour ([1]; after 1 hour, amorphous vs crystalline) | saturation solubility ([2]; 37° C.) [µg/mL] | hygroscopicity (Hygroscopicity) | solubility at 1 h ([1]; pH 6, thermodynamic from solid, 37° C., after 1 hour) [µg/mL] | solubility at 24 h ([2]; 37 °C, pH 6, water, thermodynamic from solid) [µg/mL] | SMILES | recrystallization under pressure [3] |
| --- | --- | --- | --- | --- | --- | --- | --- | --- | --- |
| 340 | 105 | 290 | about sevenfold | 0.0916 ± 0.0052 | not hygroscopic |  |  | CC(C)C(=O)OCC(=O)[C@@]12OC(C3CCCCC3)O[C@@H]1CC1[C@@H]3CCC4=CC(=O)C=C[C@]4(C)[C@H]3[C@@H](O)C[C@@]12C (stereo partly drawn) [amorphous ciclesonide, 16,17-[(Cyclohexyl-methylene)bis(oxy)]-11-hydroxy-21-(2-methyl-1-oxopropoxy)-pregna-1,4-diene-3,20-dione[11β,16α]] | did not show any signs of recrystallization |
|  |  |  |  |  |  | ~0.05 (≈ 0.0925 µM) | ~0.091 (≈ 0.168 µM) | CC(C)C(=O)OCC(=O)[C@@]12OC(C3CCCCC3)O[C@@H]1CC1[C@@H]3CCC4=CC(=O)C=C[C@]4(C)[C@H]3[C@@H](O)C[C@@]12C (stereo partly drawn) [crystalline ciclesonide, 16,17-[(Cyclohexyl-methylene)bis(oxy)]-11-hydroxy-21-(2-methyl-1-oxopropoxy)-pregna-1,4-diene-3,20-dione[11β,16α], reference compound] |  |
